Laboratory results taken from ChEMBL document CHEMBL6109075, “Identification of constrained peptidomimetics carrying a Michael acceptor warhead as antitrypanosomal agents” (Eur J Med Chem, 2025).

target: Rhodesain (Trypanosoma brucei rhodesiense, UniProt Q95PM0); test: Inhibition of Trypanosoma brucei rhodesiense rhodesain expressed in Pichia pastoris using Cbz-Phe-Arg-AMC as substrate assessed as inhibition constant incubated for 30 mins by fluorescence assay
Sequence (Q95PM0 whole entry): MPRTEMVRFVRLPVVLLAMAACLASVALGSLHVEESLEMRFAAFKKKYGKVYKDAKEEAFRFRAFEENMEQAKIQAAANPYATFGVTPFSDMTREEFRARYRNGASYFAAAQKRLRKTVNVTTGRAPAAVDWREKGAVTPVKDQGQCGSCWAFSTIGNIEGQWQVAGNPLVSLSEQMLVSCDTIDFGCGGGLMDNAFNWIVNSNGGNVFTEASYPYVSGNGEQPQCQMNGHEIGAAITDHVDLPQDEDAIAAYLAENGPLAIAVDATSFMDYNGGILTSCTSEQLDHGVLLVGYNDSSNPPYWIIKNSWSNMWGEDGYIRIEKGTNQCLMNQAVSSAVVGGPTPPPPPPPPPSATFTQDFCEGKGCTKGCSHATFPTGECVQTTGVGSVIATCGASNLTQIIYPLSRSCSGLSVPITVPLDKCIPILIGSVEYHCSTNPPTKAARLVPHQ

Structure (SMILES) | Ki [µM]
CC(=O)/C=C/[C@H](CCc1ccccc1)NC(=O)[C@@H]1Cc2ccccc2CN1C(=O)c1cccc(F)c1 | 0.7
CC(=O)/C=C/[C@H](CCc1ccccc1)NC(=O)[C@@H]1Cc2ccccc2CN1C(=O)OCc1ccccc1 | 0.72
CC(=O)/C=C/[C@H](CCc1ccccc1)NC(=O)[C@@H]1Cc2ccccc2CN1C(=O)c1ccc(F)cc1F | 0.09
CC(=O)/C=C/[C@H](CCc1ccccc1)NC(=O)[C@@H]1Cc2ccccc2CN1C(=O)[C@H](CC1CCCCC1)NC(=O)OCc1ccccc1 | 0.022
CC(=O)/C=C/[C@H](CCc1ccccc1)NC(=O)[C@@H]1Cc2ccccc2CN1C(=O)[C@H](Cc1ccccc1)NC(=O)OCc1ccccc1 | 0.011
CC(=O)/C=C/[C@H](CCc1ccccc1)NC(=O)[C@@H]1Cc2ccccc2CN1C(=O)[C@H](CC(C)C)NC(=O)OCc1ccccc1 | 0.016
CC(=O)/C=C/[C@H](CCc1ccccc1)NC(=O)[C@@H]1Cc2ccccc2CN1C(=O)c1ccc(F)cc1 | 1.92
CC(=O)/C=C/[C@H](CCc1ccccc1)NC(=O)[C@@H]1Cc2ccccc2CN1C(=O)c1ccccc1F | 4.88

target: Rhodesain (Trypanosoma brucei rhodesiense) (UniProt Q95PM0); test: Inhibition of Trypanosoma brucei rhodesiense rhodesain expressed in Pichia pastoris using Cbz-Phe-Arg-AMC as substrate at 20 uM incubated for 30 mins by fluorescence assay relative to control
Sequence (Q95PM0 1-450): as the sequence (Q95PM0 whole entry) above

Structure (SMILES) | inhibition [%]
CC(=O)/C=C/[C@H](CCc1ccccc1)NC(=O)[C@@H]1Cc2ccccc2CN1C(=O)OC(C)(C)C | 18
CC(=O)/C=C/[C@H](CCc1ccccc1)NC(=O)[C@@H]1Cc2ccccc2CN1C(=O)[C@H](C)NC(=O)OCc1ccccc1 | 26
CC(=O)/C=C/[C@H](CCc1ccccc1)NC(=O)[C@@H]1Cc2ccccc2CN1C(=O)Nc1ccc(Cl)cc1C | 40
CC(=O)/C=C/[C@H](Cc1ccccc1)NC(=O)[C@@H]1Cc2ccccc2CN1C(=O)c1ccc(F)cc1F | 18.4
CC(=O)/C=C/[C@H](CCc1ccccc1)NC(=O)[C@@H]1Cc2ccccc2CN1C(=O)Nc1ccc(C)cc1 | 14
CC(=O)/C=C/[C@H](CCc1ccccc1)NC(=O)[C@@H]1Cc2ccccc2CN1C(=O)c1c(F)cccc1F | 32
CC(=O)/C=C/[C@H](C)NC(=O)[C@@H]1Cc2ccccc2CN1C(=O)c1ccc(F)cc1F | 20.2
CC(=O)/C=C/CNC(=O)[C@@H]1Cc2ccccc2CN1C(=O)c1ccc(F)cc1F | 11

system: not listed separately; test: Cytotoxicity against human SH-SY5Y cells assessed as reduction in cell viability incubated for 24 hrs by MTT assay; type: toxicity, cell-based

Structure (SMILES) | CC50 at 24 h [µM]
CC(=O)/C=C/[C@H](CCc1ccccc1)NC(=O)[C@@H]1Cc2ccccc2CN1C(=O)c1cccc(F)c1 | > 100
CC(=O)/C=C/[C@H](CCc1ccccc1)NC(=O)[C@@H]1Cc2ccccc2CN1C(=O)OCc1ccccc1 | > 100
CC(=O)/C=C/[C@H](CCc1ccccc1)NC(=O)[C@@H]1Cc2ccccc2CN1C(=O)c1ccc(F)cc1F | > 100
CC(=O)/C=C/[C@H](CCc1ccccc1)NC(=O)[C@@H]1Cc2ccccc2CN1C(=O)[C@H](CC1CCCCC1)NC(=O)OCc1ccccc1 | > 100
CC(=O)/C=C/[C@H](CCc1ccccc1)NC(=O)[C@@H]1Cc2ccccc2CN1C(=O)[C@H](Cc1ccccc1)NC(=O)OCc1ccccc1 | > 100
CC(=O)/C=C/[C@H](CCc1ccccc1)NC(=O)[C@@H]1Cc2ccccc2CN1C(=O)[C@H](CC(C)C)NC(=O)OCc1ccccc1 | > 100
CC(=O)/C=C/[C@H](CCc1ccccc1)NC(=O)[C@@H]1Cc2ccccc2CN1C(=O)c1ccc(F)cc1 | > 100
CC(=O)/C=C/[C@H](CCc1ccccc1)NC(=O)[C@@H]1Cc2ccccc2CN1C(=O)c1ccccc1F | > 100

target: Rhodesain (Trypanosoma brucei rhodesiense) (UniProt Q95PM0); test: Inhibition of Trypanosoma brucei rhodesiense rhodesain expressed in Pichia pastoris using Cbz-Phe-Arg-AMC as substrate assessed as second order rate constant obtained from ratio of Kinact by Ki incubated for 30 mins by fluorescence assay

Structure (SMILES) | Ratio
CC(=O)/C=C/[C@H](CCc1ccccc1)NC(=O)[C@@H]1Cc2ccccc2CN1C(=O)c1cccc(F)c1 | 30.1 10^3/M/min
CC(=O)/C=C/[C@H](CCc1ccccc1)NC(=O)[C@@H]1Cc2ccccc2CN1C(=O)OCc1ccccc1 | 6.7 10^3/M/min
CC(=O)/C=C/[C@H](CCc1ccccc1)NC(=O)[C@@H]1Cc2ccccc2CN1C(=O)c1ccc(F)cc1F | 146 10^3/M/min
CC(=O)/C=C/[C@H](CCc1ccccc1)NC(=O)[C@@H]1Cc2ccccc2CN1C(=O)[C@H](CC1CCCCC1)NC(=O)OCc1ccccc1 | 47.9 10^3/M/min
CC(=O)/C=C/[C@H](CCc1ccccc1)NC(=O)[C@@H]1Cc2ccccc2CN1C(=O)[C@H](Cc1ccccc1)NC(=O)OCc1ccccc1 | 75.6 10^3/M/min
CC(=O)/C=C/[C@H](CCc1ccccc1)NC(=O)[C@@H]1Cc2ccccc2CN1C(=O)[C@H](CC(C)C)NC(=O)OCc1ccccc1 | 68.5 10^3/M/min
CC(=O)/C=C/[C@H](CCc1ccccc1)NC(=O)[C@@H]1Cc2ccccc2CN1C(=O)c1ccc(F)cc1 | 8 10^3/M/min
CC(=O)/C=C/[C@H](CCc1ccccc1)NC(=O)[C@@H]1Cc2ccccc2CN1C(=O)c1ccccc1F | 4.1 10^3/M/min

target: Rhodesain (Trypanosoma brucei rhodesiense) (UniProt Q95PM0); test: Inhibition of Trypanosoma brucei rhodesiense rhodesain expressed in Pichia pastoris using Cbz-Phe-Arg-AMC as substrate assessed as inactivation constant incubated for 30 mins by fluorescence assay

Structure (SMILES) | Kinact [min⁻¹]
CC(=O)/C=C/[C@H](CCc1ccccc1)NC(=O)[C@@H]1Cc2ccccc2CN1C(=O)c1cccc(F)c1 | 0.021
CC(=O)/C=C/[C@H](CCc1ccccc1)NC(=O)[C@@H]1Cc2ccccc2CN1C(=O)OCc1ccccc1 | 0.005
CC(=O)/C=C/[C@H](CCc1ccccc1)NC(=O)[C@@H]1Cc2ccccc2CN1C(=O)c1ccc(F)cc1F | 0.012
CC(=O)/C=C/[C@H](CCc1ccccc1)NC(=O)[C@@H]1Cc2ccccc2CN1C(=O)[C@H](CC1CCCCC1)NC(=O)OCc1ccccc1 | 0.001
CC(=O)/C=C/[C@H](CCc1ccccc1)NC(=O)[C@@H]1Cc2ccccc2CN1C(=O)[C@H](Cc1ccccc1)NC(=O)OCc1ccccc1 | 0.001
CC(=O)/C=C/[C@H](CCc1ccccc1)NC(=O)[C@@H]1Cc2ccccc2CN1C(=O)[C@H](CC(C)C)NC(=O)OCc1ccccc1 | 0.001
CC(=O)/C=C/[C@H](CCc1ccccc1)NC(=O)[C@@H]1Cc2ccccc2CN1C(=O)c1ccc(F)cc1 | 0.015
CC(=O)/C=C/[C@H](CCc1ccccc1)NC(=O)[C@@H]1Cc2ccccc2CN1C(=O)c1ccccc1F | 0.019

system: Trypanosoma brucei; test: Antitrypanosomal activity against Trypanosoma brucei incubated for 24 hrs by luminescence based ClarioStar plate reader analysis; type: functional, organism-based

Structure (SMILES) | EC50 [µM]
CC(=O)/C=C/[C@H](CCc1ccccc1)NC(=O)[C@H](Cc1ccccc1)NC(=O)[C@H](Cc1ccccc1)NC(=O)OCc1ccccc1 | 2.6
CC(=O)/C=C/[C@H](CCc1ccccc1)NC(=O)[C@@H]1Cc2ccccc2CN1C(=O)c1cccc(F)c1 | 1.35
CC(=O)/C=C/[C@H](CCc1ccccc1)NC(=O)[C@@H]1Cc2ccccc2CN1C(=O)OCc1ccccc1 | 0.67
CC(=O)/C=C/[C@H](CCc1ccccc1)NC(=O)[C@H](Cc1ccccc1)NC(=O)[C@H](CC1CCCCC1)NC(=O)OCc1ccccc1 | 1.3
CC(=O)/C=C/[C@H](CCc1ccccc1)NC(=O)[C@@H]1Cc2ccccc2CN1C(=O)c1ccc(F)cc1F | 1.21
CC(=O)/C=C/[C@H](CCc1ccccc1)NC(=O)[C@@H]1Cc2ccccc2CN1C(=O)[C@H](CC1CCCCC1)NC(=O)OCc1ccccc1 | 0.57
CC(=O)/C=C/[C@H](CCc1ccccc1)NC(=O)[C@H](Cc1ccccc1)NC(=O)[C@H](CC(C)C)NC(=O)OCc1ccccc1 | 3.1
CC(=O)/C=C/[C@H](CCc1ccccc1)NC(=O)[C@@H]1Cc2ccccc2CN1C(=O)[C@H](Cc1ccccc1)NC(=O)OCc1ccccc1 | 0.42
CC(=O)/C=C/[C@H](CCc1ccccc1)NC(=O)[C@@H]1Cc2ccccc2CN1C(=O)[C@H](CC(C)C)NC(=O)OCc1ccccc1 | 0.58
CC(=O)/C=C/[C@H](CCc1ccccc1)NC(=O)[C@@H]1Cc2ccccc2CN1C(=O)c1ccc(F)cc1 | 0.85
CC(=O)/C=C/[C@H](CCc1ccccc1)NC(=O)[C@@H]1Cc2ccccc2CN1C(=O)c1ccccc1F | 0.91
